This note sets out measurements from publication PMC12299463, “Cladolosides of Groups S and T: Triterpene Glycosides from the Sea Cucumber Cladolabes schmeltzii with Unique Sulfation; Human Breast Cancer Cytotoxicity and QSAR” (Marine Drugs, 2025).

Broadly, the IC50 is the midpoint of a concentration-inhibition curve.

Several values for one entry are separate records, joined by “and”; a condition that tells them apart may be missing. Identical values can stand only once. Counter-ions that a name gives are not always drawn. Like-named read-outs stand apart in the source and are kept apart here.

One data set has as its system human erythrocytes. The experiment in a line: Hemolytic activity against human erythrocytes. It is filed as cell-based. As to conditions: for ED50, Erythrocytes (hemolytic activity): 1 h at 37 °C. As to the method:
A total of 450 g of human blood (B(III) Rh+) was used to obtain erythrocytes by centrifuging three times for 5 min with phosphate-buffered saline (PBS) (pH 7.4) at 4 °C on a centrifuge LABOFUGE 400R (Heraeus, Hanau, Germany). Ice-cold PBS (pH 7.4) was used for resuspension of erythrocyte residue to a final optical density of 1.5 at 700 nm. Then, 20 µL of tested compound solutions or control (cucumarioside A0-1 [15]) were added to 180 µL of erythrocyte suspension in V-bottom 96-well plates and incubated for 1 h at 37 °C. After centrifugation (900 g, 10 min, laboratory centrifuge LMC-3000 (Biosan, Riga, Latvia)), 100 µL of supernatant was transferred into new flat plates. The values of erythrocyte lysis were measured on microplate photometer Multiskan FC (Thermo Fisher Scientific, Waltham, MA, USA) at λ = 570 nm as hemoglobin concentration in supernatant. […] All the experiments were carried out in triple repetitions, p < 0.05.

Data set [1] deals with MCF-10A non-tumor mammary epithelial cell line. Briefly: in vitro. It is filed as cell-based, human.
Data set [2] has as its system MCF-7 human breast cancer cells. Briefly: cells. The data set is classed as cell-based.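 Also: IC50 values, including those behind the selectivity ratio, derive from formazan absorbance at 570 nm, tested in triplicate.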
For data set [3], the system named is T-47D human breast cancer cells. The experiment in a line: cells. It is filed as cell-based. As to conditions: for Selectivity Index (SI), T-47D: ratio of IC50 for healthy (MCF-10A) and T-47D cells.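 As to all read-outs here: cell viability read as absorbance of formazan dye at 570 nm, each experiment run in triplicate.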
The test system of data set [4] is MDA-MB-231 triple-negative breast cancer cells. Briefly: cells. It is filed as cell-based, human. The conditions noted are these: for Selectivity Index (SI), MDA-MB-231: ratio of IC50 for healthy (MCF-10A) and MDA-MB-231 cells.
Setting [5] is: MTT assay, MCF-10A, read-out: Cytotoxicity, IC50, MCF-10A.
Setting [6] is: MTT assay, MCF-7, read-out: Cytotoxicity, IC50, MCF-7.
Where [7] appears, read: MTT assay, T-47D, read-out: Cytotoxicity, IC50, T-47D.
Where [8] appears, read: MTT assay, MDA-MB-231, read-out: Cytotoxicity, IC50, MDA-MB-231.

For the compound `CO[C@@H]1[C@@H](O)[C@H](O[C@@H]2[C@@H](O)[C@H](O[C@@H]3CO[C@@H](O[C@H]4CC[C@]5(C)C6=CCC78C(=O)O[C@@](C)([C@@H](CCC(C)C)OC(C)=O)[C@H]7[C@@H](OC(C)=O)C[C@@]8(C)[C@@H]6CC[C@H]5C4(C)C)[C@H](O[C@@H]4O[C@H](C)[C@@H](O[C@@H]5OC[C@@H](O)[C@H](O[C@@H]6O[C@H](CO)[C@@H](O)[C@H](OS(=O)(=O)O)[C@H]6O)[C@H]5O)[C@H](O)[C@H]4O)[C@H]3O)O[C@H](CO)[C@H]2O)O[C@H](CO)[C@H]1O` (stereo partly drawn) [Cladoloside T1 (4), 3β-O-{3-O-sodium sulfate-β-D-glucopyranosyl-(1→3)-β-D-xylopyranosyl-(1→4)-β-D-quinovopyranosyl-(1→2)-[3-O-methyl-β-D-glucopyranosyl-(1→3)-β-D-glucopyranosyl-(1→4)]-β-D-xylopyranosyl}-16S,22R-diacetoxyholost-9-en], the “ED50, Erythrocytes (hemolytic activity)” value with human erythrocytes was 0.12 µM and 0.12 ± 0.02 µM. Moreover, the half-maximal inhibitory concentration (IC50) in data set [1] came to 8.41 ± 0.4 µM; in data set [2], 7.78 ± 0.62 µM; in data set [3], 7.41 ± 0.69 µM; in data set [4], 2.94 ± 0.21 µM.
On to `C=C(C)CC[C@@H](OC(C)=O)[C@]1(C)OC(=O)C23CC=C4[C@@H](CC[C@H]5C(C)(C)[C@@H](O[C@@H]6OC[C@@H](O)[C@H](O)[C@H]6O[C@@H]6O[C@H](C)[C@@H](O[C@@H]7OC[C@@H](O)[C@H](O[C@@H]8O[C@H](CO)[C@@H](O)[C@H](OC)[C@H]8O)[C@H]7O)[C@H](O)[C@H]6O)CC[C@]45C)[C@]2(C)C[C@H](OC(C)=O)[C@@H]31` (stereo partly drawn) [A2 (6), cladoloside A2], for which, in the data set with human erythrocytes, the “Hemolytic (membranolytic) activity, in words” value was “moderate activity”. In addition, in the data set on human erythrocytes, the “ED50, Erythrocytes (hemolytic activity)” value worked out at 2.78 ± 0.32 µM. The IC50 in data set [1] (setting [5]), in data set [2] (setting [6]), in data set [3] (setting [7]) and in data set [4] (setting [8]) was > 20 µM throughout.
As to `COC1C(O)C(CO)OC(OC2C(O)COC(OC3C(C)OC(OC4C(OC5CCC6(C)C7=CCC89C(=O)OC(C)(CC=CC(C)(C)O)C8C(=O)CC9(C)C7CCC6C5(C)C)OCC(O)C4O)C(O)C3O)C2O)C1O` (stereo not drawn) [A5 (9), cladoloside A5], the “ED50, Erythrocytes (hemolytic activity)” value was 7.19 ± 0.53 µM in the data set on human erythrocytes and 7.19 µM in the data set with human erythrocytes (listed as cladoloside A5 (9)). Also, the 50% inhibitory concentration (IC50) in data set [1] (setting [5]), in data set [2] (setting [6]), in data set [3] (setting [7]) and in data set [4] (setting [8]) was > 20 µM each time.
Regarding `C=C(C)CC[C@@H](OC(C)=O)[C@]1(C)OC(=O)C23CC=C4[C@@H](CC[C@H]5C(C)(C)[C@@H](O[C@@H]6OC[C@@H](O[C@@H]7O[C@H](CO)[C@@H](O)[C@H](O[C@@H]8O[C@H](CO)[C@@H](O)[C@H](OC)[C@H]8O)[C@H]7O)[C@H](O)[C@H]6O[C@@H]6O[C@H](C)[C@@H](O[C@@H]7OC[C@@H](O)[C@H](O[C@@H]8O[C@H](CO)[C@@H](O)[C@H](OS(=O)(=O)O)[C@H]8O)[C@H]7O)[C@H](O)[C@H]6O)CC[C@]45C)[C@]2(C)C[C@H](OC(C)=O)[C@@H]31` (stereo partly drawn) [Cladoloside T (3), 3β-O-{3-O-sodium sulfate-β-D-glucopyranosyl-(1→3)-β-D-xylopyranosyl-(1→4)-β-D-quinovopyranosyl-(1→2)-[3-O-methyl-β-D-glucopyranosyl-(1→3)-β-D-glucopyranosyl-(1→4)]-β-D-xylopyranosyl}-16S,22R-diacetoxyholosta-9,25-diene], in the data set on human erythrocytes, the “ED50, Erythrocytes (hemolytic activity)” value is 0.39 µM and 0.39 ± 0.03 µM. Moreover, the IC50 was 8.23 ± 0.52 µM in data set [1], 8.99 ± 0.61 µM in data set [2], 8.21 ± 0.72 µM in data set [3] and 3.41 ± 0.33 µM in data set [4].
For cucumarioside A0-1 [reference compound], the “ED50, Erythrocytes (hemolytic activity)” value in the data set with human erythrocytes is given as 1.63 ± 0.21 µM. Moreover, the IC50 in data set [1] (setting [5]) was 7.51 ± 0.63 µM; in data set [2] (setting [6]), 11.3 ± 1 µM; in data set [3] (setting [7]), 8.46 ± 0.53 µM; in data set [4] (setting [8]), 3.53 ± 0.54 µM. Besides, the “Selectivity Index (SI), MCF-7” value in data set [2] (ratio of IC50 for healthy (MCF-10A) and MCF-7 cells) is recorded as 0.66. Also, the “Selectivity Index (SI), T-47D” value in data set [3] came out at 0.89. The “Selectivity Index (SI), MDA-MB-231” value in data set [4] is listed as 2.13.
As to `CO[C@@H]1[C@@H](O)[C@H](O[C@@H]2[C@@H](O)[C@H](O[C@@H]3CO[C@@H](O[C@H]4CC[C@]5(C)C6=CCC78C(=O)O[C@@](C)([C@@H](CCC(C)C)OC(C)=O)[C@H]7[C@@H](OC(C)=O)C[C@@]8(C)[C@@H]6CC[C@H]5C4(C)C)[C@H](O[C@@H]4O[C@H](C)[C@@H](O[C@@H]5OC[C@@H](O)[C@H](O[C@@H]6O[C@H](CO)[C@@H](O)[C@H](OC)[C@H]6O)[C@H]5O)[C@H](O)[C@H]4O)[C@H]3O)O[C@H](CO)[C@H]2O)O[C@H](CO)[C@H]1O` (stereo partly drawn) [Cladoloside C1 (14), cladoloside C1], the “ED50, Erythrocytes (hemolytic activity)” value in the data set with human erythrocytes (listed as C1 (14)) is 0.15 ± 0.02 µM; in the data set on human erythrocytes (listed as cladoloside C1 (14)), 0.15 µM. The IC50 in data set [1] (setting [5]) was > 20 µM; in data set [2] (setting [6]), > 20 µM; in data set [3] (setting [7]), > 20 µM; in data set [4] (setting [8]), 15.3 ± 0.71 µM.
For the compound `C=C(C)CCC[C@]1(C)OC(=O)C23CC=C4[C@@H](CC[C@H]5C(C)(C)[C@@H](O[C@@H]6OC[C@@H](O[C@@H]7O[C@H](CO)[C@@H](O)[C@H](O[C@@H]8O[C@H](CO)[C@@H](O)[C@H](OC)[C@H]8O)[C@H]7O)[C@H](O)[C@H]6O[C@@H]6O[C@H](C)[C@@H](O[C@@H]7O[C@H](CO)[C@@H](O)[C@H](O[C@@H]8O[C@H](CO)[C@@H](O)[C@H](OC)[C@H]8O)[C@H]7O)[C@H](O)[C@H]6O)CC[C@]45C)[C@]2(C)CC(=O)[C@@H]31` (stereo partly drawn) [Cladoloside M1 (35), cladoloside M1], the “ED50, Erythrocytes (hemolytic activity)” value in the data set with human erythrocytes is 0.08 ± 0.01 µM. For the same compound, the figures for the “Hemolytic (membranolytic) activity, in words” value with human erythrocytes (listed as M1 (35)) and in the data set on human erythrocytes (listed as cladoloside M1 (35)) were “strong hemolytics” and “most active compound”, respectively. Also, the half-inhibitory concentration (IC50) was 9.81 ± 0.86 µM in data set [1] (setting [5]), > 20 µM in data set [2] (setting [6]), 17.1 ± 1.52 µM in data set [3] (setting [7]) and 5.05 ± 0.38 µM in data set [4] (setting [8]). The “Selectivity Index (SI), T-47D” value in data set [3] was 0.57. Moreover, the “Selectivity Index (SI), MDA-MB-231” value in data set [4] is on record as 1.94.
As for `CO[C@@H]1[C@@H](O)[C@H](O[C@@H]2[C@@H](O)[C@H](O[C@H]3[C@H](O)[C@@H](O)[C@H](O[C@H]4[C@H](O[C@H]5CC[C@]6(C)C7=CCC89C(=O)O[C@@](C)([C@@H](CCC(C)C)OC(C)=O)[C@H]8[C@@H](OC(C)=O)C[C@@]9(C)[C@@H]7CC[C@H]6C5(C)C)OC[C@@H](O)[C@@H]4O)O[C@@H]3C)OC[C@H]2O)O[C@H](CO)[C@H]1O` (stereo partly drawn) [A1 (5)], the “ED50, Erythrocytes (hemolytic activity)” value with human erythrocytes is on record as 6.17 ± 0.51 µM. Further, the half-maximal inhibitory concentration (IC50) in data set [1], in data set [2], in data set [3] and in data set [4] was > 20 µM each time.
In the case of `C=C(C)CC[C@@H](OC(C)=O)[C@]1(C)OC(=O)C23CC=C4[C@@H](CC[C@H]5C(C)(C)[C@@H](O[C@@H]6OC[C@@H](O[C@@H]7O[C@H](CO)[C@@H](O)[C@H](O[C@@H]8O[C@H](CO)[C@@H](O)[C@H](OC)[C@H]8O)[C@H]7O)[C@H](O)[C@H]6O[C@@H]6O[C@H](C)[C@@H](O[C@@H]7OC[C@@H](O)[C@H](O[C@@H]8O[C@H](CO)[C@@H](O)[C@H](OC)[C@H]8O)[C@H]7O)[C@H](O)[C@H]6O)CC[C@]45C)[C@]2(C)C[C@H](O)[C@@H]31` (stereo partly drawn) [C3 (16), cladoloside C3], the “ED50, Erythrocytes (hemolytic activity)” value is on record as 12.10 ± 0.58 µM with human erythrocytes and 12.10 µM in the data set with human erythrocytes (listed as cladoloside C3 (16)). The IC50 in data set [1], in data set [2], in data set [3] and in data set [4] was > 20 µM in each case.
Take `CO[C@@H]1[C@@H](O)[C@H](O[C@@H]2[C@@H](O)[C@H](O[C@@H]3CO[C@@H](O[C@H]4CC[C@]5(C)C6=CCC78C(=O)O[C@@](C)([C@@H](CCC(C)C)OC(C)=O)[C@H]7[C@@H](OC(C)=O)C[C@@]8(C)[C@@H]6CC[C@H]5C4(C)C)[C@H](O[C@@H]4O[C@H](C)[C@@H](O[C@@H]5OC[C@@H](O)[C@H](O[C@@H]6O[C@H](COS(=O)(=O)[O-])[C@@H](O)[C@H](OC)[C@H]6O)[C@H]5O)[C@H](O)[C@H]4O)[C@H]3O)O[C@H](CO)[C@H]2O)O[C@H](CO)[C@H]1O.[Na+]` (stereo partly drawn) [Cladoloside K1 (31), cladoloside K1]: the “ED50, Erythrocytes (hemolytic activity)” value in the data set on human erythrocytes (listed as K1 (31)) turned out to be 0.31 ± 0.02 µM; in the data set on human erythrocytes (listed as cladoloside K1 (31)), 0.31 µM. Moreover, the half-maximal inhibitory concentration (IC50) was > 20 µM in data set [1] (setting [5]), > 20 µM in data set [2] (setting [6]), 12.1 ± 1 µM in data set [3] (setting [7]) and 5.83 ± 0.41 µM in data set [4] (setting [8]). Moreover, the “Selectivity Index (SI), T-47D” value in data set [3] is recorded as >1.65.
